From patent US20240200003A1, “DEVICES AND METHODS FOR IN VITRO MODELING OF METASTATIC CANCER” (XYLYX BIO, INC., priority 2020, published 2024)
“And” between values parts separate entries of the source, which are not always exact repeats. Identical values can stand only once. Like-named read-outs stand apart in the source and are kept apart here.

How the values were obtained:
[1] = Diffusion assay through lung ECM hydrogel; assay type: physicochemical
Excerpt: The difference in IC50 values of the three drugs in this study are attributable to the different cellular mechanism that each drug targets as well as expression of and access to each target. Erlotinib is an inhibitor of epidermal growth factor receptor (EGFR) tyrosine kinase, whereas Etoposide inhibits DNA topoisomerase II, which prevents DNA ligation and ultimately causes DNA strands to break. KPT-185 induces apoptosis as a selective inhibitor of nuclear export (SINE) compound. […] Another important consideration for drug testing in 3D culture systems is drug permeability through the ECM and cell membrane.

[2] = test system: Human lung adenocarcinoma Jacket cells; experiment: XTT cell viability / IC50 of anti-cancer drugs, Jacket cells in 3D lung tumor model; assay type: cell-based; details: for growth inhibition (cell viability): Jacket cells, doses 0.1-10 μM, 3D TissueSpec® Lung ECM Hydrogel and 2D plastic
Procedure: (§1) Cell Expansion. […] Forming 3D Lung Tumor Model. […] Drug Treatment. […] After 72 hours, cell viability was assayed. […] Cell Proliferation Assay. […] Data Analysis.

[3] = test system: Human lung adenocarcinoma A549 cells; experiment: XTT cell viability / IC50 of anti-cancer drugs, A549 cells in 3D lung tumor model; assay type: cell-based; details: for IC50: 72 h drug
Procedure: as §1

[4] = test system: MCF-7 and MB-231 breast cancer cells; details: previous studies; cited from earlier work
[5] = clinical trials; cited from earlier work
[6] = test system: breast cancer cells T47-D; experiment: Viability assay of breast cancer cells embedded in TissueSpec ECM hydrogels; assay type: cell-based, human; set-up: dose or concentration left out as unconfirmed; details: 72 hours, Bone, Liver, Lung ECM Hydrogels, Matrigel, plastic
Procedure: Methods. Viability assays were performed on breast cancer cells T47-D embedded in TissueSpec® Bone, Liver, and Lung ECM Hydrogels and treated with Tamoxifen (20 M and 40 M) or vehicle (DMSO) for 72 hours. Matrigel and plastic were used as control substrates.

[7] = Homo sapiens, 72 h, Jacket cells in Matrigel®, 72 h drug, read-out: IC50
[8] = Homo sapiens, 72 h, Jacket cells in TissueSpec® Lung ECM Hydrogel (3D), 72 h drug, read-out: IC50
[9] = Homo sapiens, 72 h, Jacket cells on Plastic (no ECM), 2D, 72 h drug, read-out: IC50
[10] = Homo sapiens, A549, 72 h, A549 cells in Matrigel®
[11] = Homo sapiens, A549, 72 h, A549 cells in TissueSpec® Lung ECM Hydrogel (3D)
[12] = Homo sapiens, A549, 72 h, A549 cells on Plastic (no ECM), 2D
[13] = Jacket cells in TissueSpec® Lung ECM Hydrogel, reproducibility, two rounds, read-out: IC50 in two separate rounds of testing

CC1=CC(C)(C)N(C)c2cc3[o+]c4cc5c(cc4c(-c4cc(NC(=O)c6ccc(CCl)cc6)ccc4C(=O)[O-])c3cc21)C(C)=CC(C)(C)N5C.CC1=CC(C)(C)N(C)c2cc3[o+]c4cc5c(cc4c(-c4ccc(NC(=O)c6ccc(CCl)cc6)cc4C(=O)[O-])c3cc21)C(C)=CC(C)(C)N5C [CellTracker Red CMTPX]
diffusion speed through TissueSpec® Lung ECM Hydrogel [1]: ≥ 1.3 mm/h

C#Cc1cccc(Nc2ncnc3cc(OCCOC)c(OCCOC)cc23)c1 [Erlotinib]
IC50 [2, 7]: 8.7 µM
IC50 [2, 8]: 7.5 µM
IC50 [2, 9]: 5.2 µM
growth inhibition (cell viability) ([3]; A549 cells, doses 0.1-10 μM, 3D TissueSpec® Lung ECM Hydrogel and plastic): dose-dependent growth inhibition
IC50 [3, 10]: 57.5 µM
IC50 [3, 11]: 134 µM
IC50 [3, 12]: 36.4 µM

COc1cc([C@@H]2c3cc4c(cc3[C@@H](O[C@@H]3O[C@@H]5CO[C@@H](C)O[C@H]5[C@H](O)[C@H]3O)[C@H]3COC(=O)[C@H]23)OCO4)cc(OC)c1O [Etoposide]
IC50 [2, 7]: 15.8 µM
IC50 [2, 8]: 3.7 µM
IC50 [2, 9]: 4.4 µM
IC50 ([2]; Homo sapiens, Jacket cells in TissueSpec® Lung ECM Hydrogel, reproducibility, two rounds, read-out: IC50 in two separate rounds of testing): 3.8 µM
IC50 ([2]; Jacket cells in Matrigel®, reproducibility, two rounds, read-out: IC50 in two separate rounds of testing): 0.7 µM
IC50 [2, 13]: 4 µM
growth inhibition (cell viability) [2]: dose-dependent growth inhibition
IC50 [3, 10]: 35.5 µM
IC50 [3, 11]: 16.6 µM
IC50 [3, 12]: 40.3 µM

COc1cc(-c2ncn(/C=C\C(=O)OC(C)C)n2)cc(C(F)(F)F)c1 [KPT-185]
IC50 ([2]; Jacket cells in Matrigel®, 72 h drug, read-out: IC50): 4.3 µM
IC50 ([2]; Jacket cells in TissueSpec® Lung ECM Hydrogel (3D), 72 h drug, read-out: IC50): 0.4 µM
IC50 [2, 13]: 0.4 µM
IC50 ([2]; Jacket cells on Plastic (no ECM), 2D, 72 h drug, read-out: IC50): 0.2 µM
growth inhibition (cell viability) [2]: dose-dependent growth inhibition
IC50 ([3]; A549 cells in Matrigel®): 4.2 µM
IC50 ([3]; A549 cells in TissueSpec® Lung ECM Hydrogel (3D)): 2.3 µM
IC50 ([3]; A549 cells on Plastic (no ECM), 2D): 8.8 µM

COc1cccc2c1C(=O)c1c(O)c3c(c(O)c1C2=O)C[C@@](O)(C(=O)CO)C[C@@H]3O[C@H]1C[C@H](N)[C@H](O)[C@H](C)O1 [doxorubicin]
resistance when cultured in Matrigel® [4]: more resistant to doxorubicin when cultured in Matrigel®

CNC(=O)c1cc(Oc2ccc(NC(=O)Nc3ccc(Cl)c(C(F)(F)F)c3)cc2)ccn1 [sorafenib]
HCC patient plasma concentration [5]: 2 mg/L and 4 μM

CC/C(=C(\c1ccccc1)c1ccc(OCCN(C)C)cc1)c1ccccc1 [tamoxifen, Tamoxifen]
differential viability response by substrate [6]: cells embedded in lung and bone ECM are more resistant than cells embedded in liver, matrigel or plastic
